According to US9023789B2, “Amylin analogs and pharmaceutical compositions thereof” (Novo Nordisk A/S, priority 2012, dated 2015):
Numbered stars: 1 amine (or outer) side, 2 acyl side, 3 side chain; on linkers, the order of the positions; unused ones are H or OH. Bridge positions count the residues as written; N and C are the ends. Side chains are listed from the residue outwards. Peptide text beside a SMILES is read from it. * marks the point of attachment. C20 diacid = O=C(O)CCCCCCCCCCCCCCCCCCC(=O)*; γGlu = O=C(O)[C@H](CCC(=O)[*:2])N[*:1]

How the values were obtained:
[1] = target: T1, rat calcitonin receptor (Rattus norvegicus, UniProt P32214); experiment: ASSAY (VIII) binding to the rat calcitonin receptor; details: Table 7, read-out: rCTR bind IC50
T1 construct: expressed in transfected cells; host or cells: BHK tk'ts 13 (transient, FuGENE 6), membranes
T1 sequence (P32214 25-479 isoform P32214-2 limits assumed): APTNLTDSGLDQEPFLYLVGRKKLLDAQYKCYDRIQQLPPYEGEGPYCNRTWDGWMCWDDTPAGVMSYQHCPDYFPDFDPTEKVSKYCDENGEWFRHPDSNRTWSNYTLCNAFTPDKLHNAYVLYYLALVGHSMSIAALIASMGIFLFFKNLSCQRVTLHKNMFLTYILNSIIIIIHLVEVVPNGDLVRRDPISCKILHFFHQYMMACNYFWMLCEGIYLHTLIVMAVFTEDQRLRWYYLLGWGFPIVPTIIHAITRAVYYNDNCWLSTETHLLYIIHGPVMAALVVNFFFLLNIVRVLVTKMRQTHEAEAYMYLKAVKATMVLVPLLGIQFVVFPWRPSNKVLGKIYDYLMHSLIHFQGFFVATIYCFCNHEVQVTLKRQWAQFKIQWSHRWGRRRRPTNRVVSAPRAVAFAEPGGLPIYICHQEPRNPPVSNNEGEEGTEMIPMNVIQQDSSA
How it was run: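 BHK tk′ts 13 cells, transient rat calcitonin receptor transfection; DMEM + 10% FBS; harvest ~48 h post-transfection; membrane prep.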

[2] = target: T2, human calcitonin (a) receptor in BHK570 cells (Homo sapiens, UniProt P30988); experiment: ASSAY (II)a functional assay, human calcitonin receptor (CRE luciferase); assay type: cell-based; details: read-out: hCTR funct. EC50
T2 construct: expressed in transfected cells
T2 sequence (P30988 25-474): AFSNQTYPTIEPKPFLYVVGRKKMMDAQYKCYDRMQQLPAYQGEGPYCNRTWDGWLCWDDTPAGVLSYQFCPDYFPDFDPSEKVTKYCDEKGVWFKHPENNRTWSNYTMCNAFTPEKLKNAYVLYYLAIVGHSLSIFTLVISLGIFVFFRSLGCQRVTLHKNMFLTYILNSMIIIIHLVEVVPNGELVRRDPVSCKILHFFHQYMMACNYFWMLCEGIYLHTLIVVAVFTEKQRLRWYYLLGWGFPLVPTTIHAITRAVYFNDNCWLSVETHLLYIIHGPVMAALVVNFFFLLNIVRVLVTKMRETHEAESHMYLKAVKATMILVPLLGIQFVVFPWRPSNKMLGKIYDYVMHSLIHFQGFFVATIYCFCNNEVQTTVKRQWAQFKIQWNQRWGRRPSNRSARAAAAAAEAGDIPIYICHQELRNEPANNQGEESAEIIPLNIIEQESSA
How it was run: (§1)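 Functional agonism was measured by CRE-luciferase reporter luminescence in BHK cells bearing calcitonin receptor, or calcitonin receptor plus RAMP-3 as the amylin 3(a) receptor. Stimulation lasted 3 hours at 37° C.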

[3] = target: T3, human amylin receptor (membranes from Amylin 3(a)/CRE-luc cells) (Homo sapiens, UniProt O60896+P30988); experiment: ASSAY (V) binding to the human amylin receptor (SPA, 125I-rat amylin); details: for IC50: Table 4, read-out: hAmylin-R bind IC50;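 as to all read-outs here: competition binding of cell membranes (35 ng/µL) mixed with SPA beads in 384-well plates at 40 µL total volume, read by scintillation counting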
T3 construct: expressed in transfected cells
T3 sequence (P30988 25-474): T2 sequence (P30988 25-474)
T3 sequence (O60896 24-148 partner): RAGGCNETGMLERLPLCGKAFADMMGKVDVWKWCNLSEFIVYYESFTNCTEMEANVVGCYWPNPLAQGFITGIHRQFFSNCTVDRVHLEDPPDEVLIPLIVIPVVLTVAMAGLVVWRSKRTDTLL
Method: The binding assay was performed using scintillation proximity assay (SPA) beads (RPNQ0001) from PerkinElmer and cell membranes from the Amylin 3(a)/CRE-luc cells (as described in Assay (II)) were used. Membranes were prepared in the following way; the cells were rinsed with PBS and incubated with Versene for approximately 5 min before harvesting. The cells were flushed with PBS and the cell-suspension was centrifuged for 5 min at 1000 rpm. […] The resulting pellet was resuspended in buffer 2 and protein concentration was measured (BCA protein Assay, Pierce). The homogenate was kept cold during the whole procedure. The membranes were kept at −80° C. until use. The assay was performed in a 384 well Optiplate (PerkinElmer) in a total volume of 40 ul. Membranes were mixed with SPA beads. Final concentration of membranes 35 ng/μL final and SPA beads was 0.05 mg/well. Test-compounds were dissolved in DMSO and further diluted in assay buffer (50 mM Hepes, pH 7.4, 1 mM CaCl2, 5 mM MgCl2, 0.1% OA and 0.02% Tween20). […] Samples were analyzed on TopCounter™ (Packard). The IC50 was calculated using (one site binding competition analysis) GraphPad Prism5 as a measure of receptor affinity.

[4] = target: T4, human calcitonin receptor (Homo sapiens, UniProt P30988); experiment: ASSAY (VII) binding to the human calcitonin receptor (SPA, 125I-Calcitonin); details: read-out: hCTR bind IC50;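 also: cell membranes (35 ng/µL) combined with SPA beads in 40 µL of pH 7.4 Hepes buffer, 384-well format, signal counted on a TopCounter instrument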
T4 construct: expressed in transfected cells
T4 sequence (P30988 25-474): T2 sequence (P30988 25-474)

[5] = target: T5, human amylin 3(a) receptor (human calcitonin receptor + RAMP-3) in BHK570 cells (Homo sapiens, UniProt O60896+P30988); experiment: ASSAY (II)a functional assay, human amylin receptor (CRE luciferase); assay type: cell-based; details: for EC50: human amylin receptor functional potency, assay (II), read-out: hAmylin-R funct. EC50
T5 construct: expressed in transfected cells
How it was run: as §1

[6] = target: T6, rat amylin receptor (rat calcitonin receptor + rat RAMP 3) (Rattus norvegicus, UniProt P32214+Q9JJ73); experiment: ASSAY (VI) binding to the rat amylin receptor; details: for IC50: binding to rat amylin receptor, read-out: rAmylin-R bind IC50
T6 construct: expressed in transfected cells; host or cells: BHK tk'ts 13 (transient, FuGENE 6), membranes
T6 sequence (P32214 25-479 isoform P32214-2 limits assumed): T1 sequence (P32214 25-479 isoform P32214-2 limits assumed)
T6 sequence (Q9JJ73 23-147 partner): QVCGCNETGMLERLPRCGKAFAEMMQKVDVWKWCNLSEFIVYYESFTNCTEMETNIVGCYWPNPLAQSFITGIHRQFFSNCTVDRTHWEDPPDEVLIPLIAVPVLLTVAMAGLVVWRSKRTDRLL
How it was run: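 The cell-membrane assay assessed binding at the rat amylin receptor. BHK tk′ts 13 cells were transfected transiently with rat calcitonin receptor, with FuGENE® 6 (Roche) as the transfection reagent, used per the manufacturer's recommendations. Approximately 48 hours after transfection the cells were harvested, and membranes were prepared for measuring binding.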

[7] = Table 5, selectivity, hCTR bind IC50 / hAmylin-R bind IC50
[8] = Table 5a, selectivity, hCTR bind IC50 / hAmylin-R bind IC50
[9] = Table 5b, selectivity, hCTR bind IC50 / hAmylin-R bind IC50
[10] = Table 5c, selectivity, hCTR bind IC50 / hAmylin-R bind IC50
[11] = Table 7, human binding selectivity, included for comparison
[12] = Table 7a (preferred compounds), human binding selectivity, included for comparison
[13] = ratio of human calcitonin receptor binding IC50 to human amylin receptor binding IC50
[14] = hCTR funct. EC50 divided by hAmylin-R funct. EC50
[15] = hCTR funct. EC50 over hAmylin-R funct. EC50
[16] = human functional selectivity: hCTR funct. EC50 / hAmylin-R funct. EC50
[17] = Table 7, rat binding selectivity, rCTR IC50 / rAmylin-R IC50
[18] = Table 7a (preferred compounds), rat binding selectivity, rCTR IC50 / rAmylin-R IC50
[19] = ratio of rCTR bind IC50 to rAmylin-R bind IC50

SMILES	IC50 [1] [nM]	EC50 [2] [nM]	IC50 [3] [nM]	Ratio hCT/hAmylin binding [3, 7]	Ratio hCT/hAmylin binding [3, 8]	Ratio hCT/hAmylin binding [3, 9]	Ratio hCT/hAmylin binding [3, 10]	Ratio hCT/hAmylin binding [3, 11]	Ratio hCT/hAmylin binding [3, 12]	Ratio hCT/hAmylin binding [3, 13]	IC50 [4] [nM]	Ratio hCT/hAmylin funct. [5, 14]	Ratio hCT/hAmylin funct. [5, 15]	EC50 [5] [nM]	Ratio hCT/hAmylin funct. [5, 16]	IC50 ([6]; Table 7) [nM]	Ratio rCT/rAmylin binding [6, 17]	Ratio rCT/rAmylin binding [6, 18]	Ratio rCT/rAmylin binding [6, 19]
CC[C@H](C)[C@H](NC(=O)[C@H](C)NC(=O)CNC(=O)[C@H](Cc1ccccc1)NC(=O)[C@H](CC(N)=O)NC(=O)[C@@H]1CCCN1C(=O)[C@H](CO)NC(=O)[C@H](CO)NC(=O)[C@H](Cc1c[nH]cn1)NC(=O)[C@H](CCCNC(=N)N)NC(=O)[C@H](CC(C)C)NC(=O)[C@H](Cc1ccccc1)NC(=O)[C@H](CCC(=O)O)NC(=O)[C@H](C)NC(=O)[C@H](CC(C)C)NC(=O)[C@H](CCCNC(=N)N)NC(=O)[C@H](CCC(N)=O)NC(=O)[C@@H](NC(=O)[C@H](C)NC(=O)[C@@H]1CSSC[C@H](NC(=O)[C@@H](N)CCCCNC(=O)CC[C@H](NC(=O)CCCCCCCCCCCCCCCCCCC(=O)O)C(=O)O)C(=O)N[C@@H](CC(N)=O)C(=O)N[C@@H]([C@@H](C)O)C(=O)N[C@@H](C)C(=O)N[C@@H]([C@@H](C)O)C(=O)N1)[C@@H](C)O)C(=O)N1CCC[C@H]1C(=O)N[C@@H](CO)C(=O)N[C@@H](CO)C(=O)N[C@H](C(=O)N[C@@H](CC(N)=O)C(=O)N[C@H](C(=O)NCC(=O)N[C@@H](CCCNC(=N)N)C(=O)N[C@@H](CCC(=O)O)C(=O)N[C@H](C(=O)N[C@@H](Cc1ccc(O)cc1)C(N)=O)[C@@H](C)O)C(C)C)[C@@H](C)O [Example 108] (H-K([γGlu-C20 diacid])CNTATCATQRLAEFLRHSSPNFGAIPSSTNVGRETY-NH2; disulfide 2-7; N-terminus assumed)	86.1	2.75	0.232	28.5	28.5	28.5	28.5	28.5	28.5	28.5	6.62	6.5	6.5	0.421	6.5	1.06	81.1	81.1	81.1
CC[C@H](C)[C@H](NC(=O)[C@H](C)NC(=O)CNC(=O)[C@H](Cc1ccccc1)NC(=O)[C@H](CC(N)=O)NC(=O)[C@@H]1CCCN1C(=O)[C@H](CO)NC(=O)[C@H](CO)NC(=O)[C@H](Cc1c[nH]cn1)NC(=O)[C@H](CCCNC(=N)N)NC(=O)[C@H](CC(C)C)NC(=O)[C@H](Cc1ccccc1)NC(=O)[C@H](CC(N)=O)NC(=O)[C@H](C)NC(=O)[C@H](CC(C)C)NC(=O)[C@H](CCCNC(=N)N)NC(=O)[C@H](CCC(N)=O)NC(=O)[C@@H](NC(=O)[C@H](C)NC(=O)[C@@H]1CSSC[C@H](NC(=O)[C@@H](N)CCCCNC(=O)CC[C@H](NC(=O)CC[C@H](NC(=O)CCCCCCCCCCCCCCCCCCC(=O)O)C(=O)O)C(=O)O)C(=O)N[C@@H](CC(N)=O)C(=O)N[C@@H]([C@@H](C)O)C(=O)N[C@@H](C)C(=O)N[C@@H]([C@@H](C)O)C(=O)N1)[C@@H](C)O)C(=O)N1CCC[C@H]1C(=O)N[C@@H](CO)C(=O)N[C@@H](CO)C(=O)N[C@H](C(=O)N1CCC[C@H]1C(=O)N[C@H](C(=O)NCC(=O)N1CCC[C@H]1C(=O)N[C@@H](CCCNC(=N)N)C(=O)N[C@H](C(=O)N[C@@H](Cc1ccc(O)cc1)C(N)=O)[C@@H](C)O)C(C)C)[C@@H](C)O [Example 119] (H-K([γGlu-γGlu-C20 diacid])CNTATCATQRLANFLRHSSPNFGAIPSSTPVGPRTY-NH2; disulfide 2-7)	52.4	8.66	0.88	48.6	48.6	48.6	48.6	48.6	48.6	48.6	42.8	26.0	26.0	0.333	26.0	0.381	137.4	137.4	137.4
CC[C@H](C)[C@H](NC(=O)[C@H](C)NC(=O)CNC(=O)[C@H](Cc1ccccc1)NC(=O)[C@H](CC(N)=O)NC(=O)[C@@H]1CCCN1C(=O)[C@H](CO)NC(=O)[C@H](CO)NC(=O)[C@H](Cc1c[nH]cn1)NC(=O)[C@H](CCCNC(=N)N)NC(=O)[C@H](CC(C)C)NC(=O)[C@H](Cc1ccccc1)NC(=O)[C@H](CO)NC(=O)[C@H](C)NC(=O)[C@H](CC(C)C)NC(=O)[C@H](CCCNC(=N)N)NC(=O)[C@H](CCC(N)=O)NC(=O)[C@@H](NC(=O)[C@H](C)NC(=O)[C@@H]1CSSC[C@H](NC(=O)[C@@H](N)CCCCNC(=O)CC[C@H](NC(=O)CC[C@H](NC(=O)CCCCCCCCCCCCCCCCCCC(=O)O)C(=O)O)C(=O)O)C(=O)N[C@@H](CC(N)=O)C(=O)N[C@@H]([C@@H](C)O)C(=O)N[C@@H](C)C(=O)N[C@@H]([C@@H](C)O)C(=O)N1)[C@@H](C)O)C(=O)N1CCC[C@H]1C(=O)N[C@@H](CO)C(=O)N[C@@H](CO)C(=O)N[C@H](C(=O)N[C@@H](CC(N)=O)C(=O)N[C@H](C(=O)NCC(=O)N1CCC[C@H]1C(=O)N[C@@H](CCC(=O)O)C(=O)N[C@H](C(=O)N[C@@H](Cc1ccc(O)cc1)C(N)=O)[C@@H](C)O)C(C)C)[C@@H](C)O [Example 120] (H-K([γGlu-γGlu-C20 diacid])CNTATCATQRLASFLRHSSPNFGAIPSSTNVGPETY-NH2; disulfide 2-7 (inferred); N-terminus assumed)	140	0.887	0.076	45.3	45.3	45.3	45.3	45.3	45.3	45.3	3.44	8.1	8.1	0.109	8.1	0.161	867.7	867.7	867.7
